Results as given in EP0106486A2, “Improvements in or relating to novel octahydrobenz(f)isoquinolines” (ELI LILLY AND COMPANY, priority 1982, dated 1984).
Counter-ions that a name gives are not always drawn. Like-named read-outs stand apart in the source and are kept apart here.

Tested on: Cox standard strain albino male mice
Assay: mouse writhing assay (acetic acid-induced writhing)
Assay type: in vivo
Conditions: dose required to inhibit induced writhing by fifty percent, 5 mice per group
Excerpt: The analgesic activity of a number of compounds provided by this invention has been determined in the standard rat-tail jerk assay and the mouse writhing assay. Writhing, characterized by contraction of the abdominal musculature, extension of the hind- legs, and rotation of the trunk, was induced in Cox standard strain albino male mice. The mice, weighing 18-24 grams, were fasted overnight and given the test compound by gavage in an acacia suspension (5%) sixty minutes before writhing was induced by the intraperitoneal administration of acetic acid (0.60 percent). Each treatment group consisted of 5 mice. The total number of writhes for the treatment group was determined during a 10-minute observation starting 5 minutes after acetic acid administration. […] The results in the mouse writhing assay are presented as the effective dose in mg./kg. of the tested compound required to inhibit induced writhing in the test animals by fifty percent (ED50). Results are presented in Column II for both subcutaneous (s.c.) and oral (p.o.) administration of the test compound as compared to the reference compound meperidine.

[1] = 1 h, oral (p.o.) administration, acacia suspension (5%), sixty minutes before i.p. acetic acid (0.60 percent), read-out: Mouse Writhing ED50 p.o.
[2] = sc, subcutaneous (s.c.) administration, writhing induced by i.p. acetic acid (0.60 percent), read-out: Mouse Writhing ED50 s.c.

Compound | ED50 [1] | ED50 [2]
CCC[C@]12CCN(C)C[C@H]1CCc1ccc(OC)cc12.Cl (relative stereo) [Example 2, cis-1,2,3,4,4a,5,6,10b-octahydro-3-methyl-9-methoxy-10b-propylbenz[f]isoquinoline hydrochloride] | 11 mg/kg | 10 mg/kg
CN1CC[C@]2(C)c3cc(O)ccc3CC[C@@H]2C1 (relative stereo) [Example 3, cis-1,2,3,4,4a,5,6,10b-octahydro-3,10b-di-methylbenz[f]isoquinolin-9-ol] | 7.2 mg/kg | 2.3 mg/kg
CCC[C@]12CCNC[C@H]1CCc1ccc(OC)cc12.Cl (relative stereo) [Example 6, cis-1,2,3,4,4a,5,6,10b-octahydro-9-methoxy-10b-propylbenz[f]isoquinoline hydrochloride] | > 80 mg/kg | > 80 mg/kg
C=CCN1CC[C@]2(C)c3cc(O)ccc3CC[C@@H]2C1 (relative stereo) [Example 8, cis-1,2,3,4,4a,5,6,10b-octahydro-3-(2-propenyl)-10b-methylbenz[f]isoquinolin-9-ol] | > 80 mg/kg | 15 mg/kg
C[C@]12CCN(CC3CC3)C[C@H]1CCc1ccc(O)cc12 (relative stereo) [Example 9, cis-1,2,3,4,4a,5,6,10b-octahydro-3-(cyclopropylmethyl)-10b-methylbenz[f]isoquinolin-9-ol] | > 80 mg/kg | 32 mg/kg
C[C@@]12CCN(CCc3ccccc3)C[C@@H]1CCc1ccc(O)cc12 (relative stereo) [Example 10, cis-1,2,3,4,4a,5,6,10b-octahydro-3-(2-phenylethyl)-10b-methylbenz[f]isoquinolin-9-ol] | 38.2 mg/kg | 5.2 mg/kg
CCC[C@]12CCNC[C@H]1CCc1ccc(O)cc12 (relative stereo) [Example 11, cis-1,2,3,4,4a,5,6,10b-octahydro-10b-propylbenz[f]isoquinolin-9-ol] | > 80 mg/kg | 62 mg/kg
C=CCN1CC[C@]2(CCC)c3cc(O)ccc3CC[C@@H]2C1 (relative stereo) [Example 12, cis-1,2,3,4,4a,5,6,10b-octahydro-3-(2-propenyl)-10b-propylbenz[f]isoquinolin-9-ol] | 45 mg/kg | 12 mg/kg
CCC[C@]12CCN(CC3CC3)C[C@H]1CCc1ccc(O)cc12 (relative stereo) [Example 13, cis-1,2,3,4,4a,5,6,10b-octahydro-3-cyclopropylmethyl-10b-propylbenz[f]isoquinolin-9-ol] | 73 mg/kg | 34 mg/kg
CCC[C@]12CCN(CCc3ccccc3)C[C@H]1CCc1ccc(O)cc12 (relative stereo) [Example 14, cis-1,2,3,4,4a,5,6,10b-octahydro-3-(2-phenylethyl)-10b-propylbenz[f]isoquinolin-9-ol] | > 80 mg/kg | 78 mg/kg
COc1ccc2c(c1)[C@]1(C)CCN(C)C[C@@H]1CC2 [Example 1, cis-1,2,3,4,4a,5,6,lOb-octahydro-3,lOb-dimethyl-9-methoxybenz[f]isoquinoline hydrochloride] | 15 mg/kg | 10 mg/kg
CCC[C@@]12CCN(C)C[C@@H]1CCc1ccc(O)cc12 [Example 4, cis-1,2,3,4,4a,5,6,1Ob-octahydro-3-methyl-10b-propylbenz[f]isoquinolin-9-ol hydrochloride] | 13 mg/kg | 4.5 mg/kg
COc1ccc2c(c1)[C@]1(C)CCNC[C@@H]1CC2 [Example 5, cis-1,2,3,4,4a,5,6,10b-octahydro-9-methoxy-LOb-methylbenz[f]isoquinoline hydrochloride] | 80 mg/kg | 62 mg/kg
C[C@@]12CCNC[C@@H]1CCc1ccc(O)cc12 [Example 7, cis-l,2,3,4,4a,5,6,10b-octahydro-10b-methylbenz[f]isoquinolin-9-ol] | > 80 mg/kg | 80 mg/kg
CCOC(=O)C1(c2ccccc2)CCN(C)CC1 [Meperidine, reference compound] | 21 mg/kg | 2.8 mg/kg
